Here are results for 41 compounds from a melting point compilation (Tetko et al.).

Usually melting point stands for the temperature of the solid-liquid transition.

Non-standard residues stand in square brackets, D forms with d. Residues, ends and D or L forms follow the SMILES beside them. *: point of attachment. pGlu = O=C1CC[C@@H](C(=O)O)N1; Cbz = O=C(OCc1ccccc1)*; Boc = CC(C)(C)OC(=O)*; OBn = c1ccc(CO*)cc1; azaGly = NNC(=O)O

Compound `CCN1CCN(c2ccc(-c3ccnc(Nc4cc(OC)c(OC)c(OC)c4)n3)cn2)CC1` displayed a melting point of 139 °C. Next, `CCc1nc(OC)c(NC(=O)N2CCN(c3cc(OC)cc(OC)c3)CC2)cc1C(=O)NC(C)C(=O)Nc1cc(CO)cc(Nc2c3ccccc3nc3ccccc23)c1` (stereo unspecified): 231 to 233 °C; `O=C(Cc1cc(I)c(Oc2cc(I)c(OCC3CO3)c(I)c2)c(I)c1)OCC1CO1` (stereo unspecified): 116 °C.

As for `O=C(OCCCCCCOc1ccc(-c2ccccc2)cc1)c1cc([N+](=O)[O-])ccc1-c1ccc([N+](=O)[O-])cc1C(=O)OCCCCCCOc1ccc(-c2ccccc2)cc1`, the melting point was in the range of 121 to 122 °C. Regarding `CN(C)C(=O)c1cc2c(nc(C3CC3)n2C)c(O)c1CCC(O)c1ccccc1` (stereo unspecified), the melting point is 92 to 94 °C. Next, `CC(=O)Nc1cc(C(=O)NC2OC(COC(C)=O)C(OC3OC(COC(C)=O)C(OC(C)=O)C(OC(C)=O)C3OC(C)=O)C(OC(C)=O)C2OC(C)=O)ccc1Cl` (stereo unspecified): 122 to 124 °C; `CCCCCCCCCCCCc1ccsc1-c1ccc2c(c1)=C(C(C#N)C#N)c1cc3c(cc1=2)C(C(C#N)C#N)=c1cc(-c2sccc2CCCCCCCCCCCC)ccc1=3`: 232 to 233 °C; `CCCNc1nc2cccc(C(=O)OCC)c2n1Cc1ccc(-c2ccccc2-c2nnn[nH]2)cc1`: 170 to 172 °C. Next, `Cc1cc(-c2nc3c(S(C)=O)cc(Cl)nn3c2-c2ccnc(N)c2)ccc1F` (stereo unspecified): 216 to 217 °C. The same measure for `COc1cc(OC)c(/C=C/C(c2ccc(OC)c(NC(N)=O)c2)S(=O)(=O)C(/C=C/c2c(OC)cc(OC)cc2OC)c2ccc(OC)c(NC(N)=O)c2)c(OC)c1` (stereo unspecified): 218 to 220 °C; for `CC1=NN(CCCc2ccccc2)C(=O)C1`: 103 to 105 °C; for `CS(=O)(=O)c1ccc(-c2cc3c(cc2C(=O)c2cc4c(cc2-c2ccc(S(C)(=O)=O)cc2)OC(c2cc(F)cc(F)c2)CO4)OCC(c2cc(F)cc(F)c2)O3)cc1` (stereo unspecified): 191 to 193 °C.

`CCCCCCCCCCCCCCCCCCN(CCCCCCCCCCCCCCCCCC)CCCN(CCOC(=O)Nc1ccccc1)CCOC(=O)Nc1ccccc1` returned a melting point of 54 to 56 °C. Next, `CC(=O)N1C(C)(C)CC(OC(=O)CCn2c(=O)n(CCC(=O)OC3CC(C)(C)N(C(C)=O)C(C)(C)C3)c(=O)n(CCC(=O)OC3CC(C)(C)N(C(C)=O)C(C)(C)C3)c2=O)CC1(C)C`: 126 to 128 °C; `COc1ccc(OC)c(CCNC(=O)N[C@H](Cc2cc(Br)c(O)c(Br)c2)C(=O)N[C@@H](CCCCN)C(=O)N2CCN(c3ccncc3)CC2)c1`: 135 to 137 °C; `Cc1cc(F)c(-n2nc(C(F)(F)F)nc2NC(=O)C(F)(F)F)cc1C(SC(c1cc(-n2nc(C(F)(F)F)nc2NC(=O)C(F)(F)F)c(F)cc1C)C(F)(F)F)C(F)(F)F` (stereo unspecified): 122 to 125 °C. For `CS(=N)(=O)c1ccc([N+](=O)[O-])c(C(=O)C2C=CC(C(F)(F)F)=C(Oc3ccccc3)C2(Cl)[N+](=O)[O-])c1` (stereo unspecified), the melting point is 62 to 63 °C.

In turn, `[C-]#[N+]Cc1nc(-c2ccccc2)c(-c2ccccc2)o1` had a melting point of 95 to 96 °C. Regarding `COc1cc(C(=O)Oc2ccc3c(OC(=O)c4ccc(OCc5ccccc5)c(OC)c4)c4cc(OC(=O)c5ccc(OCc6ccccc6)c(OC)c5)ccc4cc3c2)ccc1OCc1ccccc1`, the melting point was 186 to 189 °C. In the case of `CCc1nc2c(N)nc3cc(OCCCc4cccnc4)ccc3c2s1`, the melting point fell in the range of 172 to 173 °C.

The compound `C1CCC2NCCC2C1` (stereo unspecified) gave a melting point of 85 °C. Next, `CCNC(Cc1cc(I)c(Oc2cc(I)c(O)c(I)c2)c(I)c1)C(=O)O` (stereo unspecified): 191 to 193 °C.

`CC(O)CN(C)C` (stereo unspecified): the melting point was -40 °C. In turn, `CC(C)C[C@H](NC(=O)[C@@H](Cc1ccccc1)NC(=O)[C@H](Cc1ccc(O)cc1)NC(=O)[C@H](CO)NC(=O)[C@H](Cc1c[nH]c2ccccc12)NC(=O)[C@@H](Cc1ccccc1)NC(=O)[C@@H]1CCC(=O)N1)C(=O)N[C@@H](CCCNC(=N)N)C(=O)N1CCC[C@H]1C(=O)NNC(N)=O` ([pGlu][dF]WSY[dF]LRP[azaGly]-NH2) showed a melting point of 179 to 180 °C. The same measure for `O=C(Cc1ccccc1)Oc1n[nH]c(=O)c2nc3cc(Cl)ccc3c(O)c12`: 278 to 282 °C. The same measure for `O=c1[nH]c(=Cc2ccc(OCc3ccccc3)cn2)c(=O)[nH]c1=Cc1ccc(OCc2ccccc2)cn1`: 283 to 285 °C; for `CCCc1[nH]c2ccccc2c1C1(c2ccc(N(CC)CC)cc2OCCCCCCCCCCOc2cc(N(CC)CC)ccc2C2(c3c(CCC)[nH]c4ccccc34)OC(=O)c3ccccc32)OC(=O)c2ccccc21` (stereo unspecified): 116 to 118 °C; for `[C-]#[N+]Cc1nc2ccccc2o1`: 57 to 57.5 °C.

The compound `CC#CCOc1ccc(S(=O)(=O)C(C(=O)NO)C2CCCCC2)cc1` (stereo unspecified) registered a melting point of 191 °C. As for `O=S1(=O)c2ccccc2N(c2ccccc2)c2ccc(C=Cc3ccc(-c4ccc(C=Cc5ccc6c(c5)S(=O)(=O)c5ccccc5N6c5ccccc5)cc4)cc3)cc21`, the melting point came to 392 °C. The same measure for `C=CCCC(=O)Nc1c(I)c(C(=O)NC(COC(C)=O)COC(C)=O)c(I)c(C(=O)NC(COC(C)=O)COC(C)=O)c1I`: 162 to 164 °C; for `CC(C)(C)c1cc(-c2cc(C(C)(C)C)cc(C(C)(C)C)c2Op2oc3c(C(C)(C)C)cc(C(C)(C)C)cc3c3cc(C(C)(C)C)cc(C(C)(C)C)c3o2)c(O)c(C(C)(C)C)c1`: 245 to 250 °C; for `CC(C)(c1ccc(OCC(O)CN2C(=O)NC3(CC(C)(C)N(CCO)C(C)(C)C3)C2=O)cc1)c1ccc(OCC(O)CN2C(=O)NC3(CC(C)(C)N(CCO)C(C)(C)C3)C2=O)cc1` (stereo unspecified): 233 to 236 °C.

`CSCCC(NC(=O)C(CCC(N)=O)NC(=O)OC(C)(C)C)C(=O)NC(C)C(=O)NC(C(=O)NC(CCCCNC(=O)OCc1ccccc1)C(=O)OCc1ccccc1)C(C)C` (stereo unspecified) (Boc-QMAVK(Cbz)-OBn; configuration not given here) had a melting point of 238 to 241 °C. Compound `COC(=O)COc1cc(F)ccc1[N+](=O)[O-]` had a melting point of 85 to 87 °C. Next, `CCCCCCCCCCN(CCCCN(CCCN(CCCCCCCCCC)C(=O)c1cccc(O)c1O)C(=O)c1cccc(O)c1O)C(=O)c1cccc(O)c1O`: 63 to 65 °C. `O=C(NCC(COC(C(F)(F)F)(C(F)(F)F)C(F)(F)F)(COC(C(F)(F)F)(C(F)(F)F)C(F)(F)F)C(=O)O)OCC1c2ccccc2-c2ccccc21` came in with a melting point of 104 to 105 °C. For `C=COC(=O)CCC`, the melting point is -80 °C. For `CS(=N)(=O)c1ccc(Nc2ncc(Br)c(Cl)n2)cc1` (racemic), the melting point was 170 to 173 °C. The same measure for `CC(=O)Nc1cc(N2CCN(Cc3ccccc3)CC2)ccc1OCC(=O)N[C@@H](CC(N)=O)C(=O)N[C@@H](Cc1ccccc1)[C@H](O)C(=O)N1CCC[C@H]1C(=O)NC(C)(C)C`: 119 to 127 °C; for `CC(C)(C)c1cc(-c2cc(C(C)(C)C)cc(C(C)(C)C)c2Op2oc3ccccc3c3ccccc3o2)c(Op2oc3ccccc3c3ccccc3o2)c(C(C)(C)C)c1`: 80 °C.
